Laboratory results: patent US9416127B2, “Triazole carboxamides and uses thereof” (Hoffmann-La Roche Inc., priority 2012, dated 2016)
Counter-ions that a name gives are not always drawn.

Assays:
rat TAAR1 = rat TAAR1 (Rattus norvegicus (Rat), UniProt Q923Y9); experiment: Radioligand binding assay on rat TAAR1; conditions: rat TAAR1, HEK-293 membranes; second value of mouse/rat cell
Description: (§1) Construction of TAAR Expression Plasmids and Stably Transfected Cell Lines
(§2) For the construction of expression plasmids the coding sequences of human, rat and mouse TAAR 1 were amplified from genomic DNA essentially as described by Lindemann et al.. The Expand High Fidelity PCR System (Roche Diagnostics) was used with 1.5 mM Mg^2+ and purified PCR products were cloned into pCR2.1-TOPO cloning vector (Invitrogen) following the instructions of the manufacturer. PCR products were subcloned into the pIRESneo2 vector (BD Clontech, Palo Alto, Calif.), and expression vectors were sequence verified before introduction in cell lines.
(§3) HEK293 cells (ATCC # CRL-1573) were cultured essentially as described by Lindemann et al. (2005). For the generation of stably transfected cell lines HEK293 cells were transfected with the pIRESneo2 expression plasmids containing the TAAR coding sequences (described above) with Lipofectamine 2000 (Invitrogen) according to the instructions of the manufacturer, and 24 hrs post transfection the culture medium was supplemented with 1 mg/ml G418 (Sigma, Buchs, Switzerland). After a culture period of about 10 d clones were isolated, expanded and tested for responsiveness to trace amines (all compounds purchased from Sigma) with the cAMP Biotrak Enzyme immunoassay (EIA) System (Amersham) following the non-acetylation EIA procedure provided by the manufacturer.
Radioligand Binding Assay on Rat TAAR1
(§4) Membrane Preparation and Radioligand Binding.
(§5) HEK-293 cells stably expressing rat TAAR1 were maintained at 37° C. and 5% CO2 in DMEM high glucose medium, containing fetal calf serum (10%, heat inactivated for 30 min at 56° C.), penicillin/streptomycin (1%), and 375 μg/ml geneticin (Gibco). Cells were released from culture flasks using trypsin/EDTA, harvested, washed twice with ice-cold PBS (without Ca^2+ and Mg^2+), pelleted at 1'000 rpm for 5 min at 4° C., frozen and stored at −80° C. Frozen pellets were suspended in 20 ml HEPES-NaOH (20 mM, pH 7.4) containing 10 mM EDTA and homogenized with a Polytron (PT 6000, Kinematica) at 14'000 rpm for 20 s. The homogenate was centrifuged at 48'000×g for 30 min at 4° C. Subsequently, the supernatant was removed and discarded, and the pellet resuspended in 20 ml HEPES-NaOH (20 mM, pH 7.4) containing 0.1 mM EDTA using the Polytron (20 s at 14'000 rpm). This procedure was repeated and the final pellet resuspended in HEPES-NaOH containing 0.1 mM EDTA and homogenized using the Polytron. Typically, aliquots of 2 ml membrane portions were stored at −80° C. With each new membrane batch the dissociation constant (Kd) was determined via a saturation curve. […] Nonspecific binding was defined as the amount of ^3[H]—(S)-4-[(ethyl-phenyl-amino)-methyl]-4,5-dihydro-oxazol-2-ylamine bound in the presence of 10 μM unlabeled ligand. All compounds were tested at a broad range of concentrations (10 μM to 10 μM) in duplicates. […] The 96 deep well plates were incubated for 1 hr at 4° C. Incubations were terminated by rapid filtration through Unifilter-96 plates (Packard Instrument Company) and glass filters GF/C (Perkin Elmer) presoaked for 1 hr in polyethylenimine (0.3%) and washed 3 times with 1 ml of cold binding buffer. After addition of 45 μl of Microscint 40 (PerkinElmer) the Unifilter-96 plate was sealed and after 1 hr the ratioactivity counted using a TopCount Microplate Scintillation Counter (Packard Instrument Company).

mouse TAAR1 = mouse TAAR1 (Mus musculus (Mouse), UniProt Q923Y8); experiment: Radioligand binding assay on mouse TAAR1; conditions: mouse TAAR1, HEK-293 membranes; first value of mouse/rat cell
Description: as §1, §2, §3
Radioligand Binding Assay on Mouse TAAR1
as §4
as §5, with “expressing mouse” for “expressing rat”, “(10 pM” for “(10 μM”

Sequence of rat TAAR1 (Q923Y9 whole entry): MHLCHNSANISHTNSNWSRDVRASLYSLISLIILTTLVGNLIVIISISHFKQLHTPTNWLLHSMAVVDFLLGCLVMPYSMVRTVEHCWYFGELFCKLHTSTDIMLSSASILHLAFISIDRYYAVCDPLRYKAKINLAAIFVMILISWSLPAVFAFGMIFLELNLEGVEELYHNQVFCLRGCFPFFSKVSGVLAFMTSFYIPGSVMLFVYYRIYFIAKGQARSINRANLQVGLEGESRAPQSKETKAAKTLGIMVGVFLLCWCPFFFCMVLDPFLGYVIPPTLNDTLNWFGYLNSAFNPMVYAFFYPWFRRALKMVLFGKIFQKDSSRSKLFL
Sequence of mouse TAAR1 (Q923Y8 whole entry): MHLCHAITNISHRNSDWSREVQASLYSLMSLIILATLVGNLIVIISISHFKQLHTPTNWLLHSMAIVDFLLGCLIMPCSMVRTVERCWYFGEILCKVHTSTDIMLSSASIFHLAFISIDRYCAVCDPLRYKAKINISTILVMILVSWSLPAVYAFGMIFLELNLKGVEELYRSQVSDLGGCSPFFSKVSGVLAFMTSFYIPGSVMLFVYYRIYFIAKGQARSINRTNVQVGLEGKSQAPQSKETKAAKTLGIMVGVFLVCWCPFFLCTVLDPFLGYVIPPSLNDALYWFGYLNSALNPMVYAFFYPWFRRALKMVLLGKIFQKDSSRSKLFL

Row | SMILES | Ki (rat TAAR1) [µM] | Ki (mouse TAAR1) [µM]
1 | O=C(Nc1ccc([C@H]2CNCCO2)cc1)c1cnn(-c2ccc(OC(F)F)cc2)n1 [Example 16, (S)-2-(4-(Difluoromethoxy)phenyl)-N-(4-(morpholin-2-yl)phenyl)-2H-1,2,3-triazole-4-carboxamide hydrochloride] | 0.0002 | 0.0003
2 | O=C(Nc1ccc([C@H]2CNCCO2)cc1)c1cnn(-c2cccc(Cl)c2)n1 [Example 12, (S)-2-(3-Chlorophenyl)-N-(4-(morpholin-2-yl)phenyl)-2H-1,2,3-triazole-4-carboxamide hydrochloride] | 0.0002 | 0.0002
3 | O=C(Nc1ccc(C2CCCNC2)cc1)c1cnn(-c2ccccc2)n1 (racemic) [Example 35, (RS)-2-Phenyl-N-(4-(piperidin-3-yl)phenyl)-2H-1,2,3-triazole-4-carboxamide] | 0.0017 | 
4 | Cc1nn(-c2ccccc2)nc1C(=O)Nc1ccc([C@@H]2CNCCO2)cc1 [Example 7, (R)-5-Methyl-N-(4-(morpholin-2-yl)phenyl)-2-phenyl-2H-1,2,3-triazole-4-carboxamide hydrochloride] | 0.0002 | 0.0027
5 | COc1cccc(-n2ncc(C(=O)Nc3ccc([C@H]4CNCCO4)cc3)n2)c1 [Example 30, (S)-2-(3-Methoxyphenyl)-N-(4-(morpholin-2-yl)phenyl)-2H-1,2,3-triazole-4-carboxamide hydrochloride] | 0.0082 | 0.0032
6 | COc1cccc(-n2cc(C(=O)Nc3ccc([C@H]4CNCCO4)cc3)nn2)c1 [Example 25, (S)-1-(3-Methoxyphenyl)-N-(4-(morpholin-2-yl)phenyl)-1H-1,2,3-triazole-4-carboxamide hydrochloride] | 0.0092 | 0.0014
7 | CCOc1cccc(-n2cc(C(=O)Nc3ccc([C@H]4CNCCO4)cc3)nn2)c1 [Example 26, (S)-1-(3-Ethoxyphenyl)-N-(4-(morpholin-2-yl)phenyl)-1H-1,2,3-triazole-4-carboxamide hydrochloride] | 0.0032 | 0.0011
8 | O=C(Nc1ccc([C@@H]2CNCCO2)cc1)c1cnn(-c2ccccc2)n1 [Example 8, (R)—N-(4-(Morpholin-2-yl)phenyl)-2-phenyl-2H-1,2,3-triazole-4-carboxamide hydrochloride] | 0.0008 | 0.0014
9 | O=C(Nc1ccc([C@H]2CNCCO2)cc1)c1cn(-c2ccc(Br)cn2)nn1 [Example 36, (S)-1-(5-Bromopyridin-2-yl)-N-(4-(morpholin-2-yl)phenyl)-1H-1,2,3-triazole-4-carboxamide hydrochloride] | 0.03 | 0.0046
10 | O=C(Nc1ccc(C2CCNC2)cc1)c1cnn(-c2ccccc2)n1 (racemic) [Example 34, (RS)-2-Phenyl-N-(4-(pyrrolidin-3-yl)phenyl)-2H-1,2,3-triazole-4-carboxamide] | 0.001 | 0.0032
11 | O=C(Nc1ccc([C@H]2CNCCO2)cc1)c1cnn(-c2ccc(C(F)(F)F)cc2)n1 [Example 10, (S)—N-(4-(Morpholin-2-yl)phenyl)-2-(4-(trifluoromethyl)phenyl)-2H-1,2,3-triazole-4-carboxamide hydrochloride] | 0.0002 | 0.0004
12 | COc1ccc(-n2cc(C(=O)Nc3ccc([C@H]4CNCCO4)cc3)nn2)cc1 [Example 19, (S)-1-(4-Methoxyphenyl)-N-(4-(morpholin-2-yl)phenyl)-1H-1,2,3-triazole-4-carboxamide hydrochloride] | 0.0388 | 0.0016
13 | O=C(Nc1ccc([C@H]2CNCCO2)cc1)c1cnn(-c2ccc(F)cc2)n1 [Example 9, (S)-2-(4-Fluorophenyl)-N-(4-(morpholin-2-yl)phenyl)-2H-1,2,3-triazole-4-carboxamide hydrochloride] | 0.0006 | 0.0004
14 | COc1ccc(-n2ncc(C(=O)Nc3ccc([C@H]4CNCCO4)cc3)n2)cc1 [Example 20, (S)-2-(4-Methoxyphenyl)-N-(4-(morpholin-2-yl)phenyl)-2H-1,2,3-triazole-4-carboxamide hydrochloride] | 0.0019 | 0.0014
15 | Cc1nn(-c2ccccc2)nc1C(=O)Nc1ccc([C@H]2CNCCO2)cc1 [Example 2, (S)-5-Methyl-N-(4-(morpholin-2-yl)phenyl)-2-phenyl-2H-1,2,3-triazole-4-carboxamide hydrochloride] | 0.0008 | 0.0015
16 | O=C(Nc1ccc(C2CCNC2)cc1)c1cn(-c2ccc(OC(F)F)cc2)nn1 (racemic) [Example 33, (RS)-1-(4-(Difluoromethoxy)phenyl)-N-(4-(pyrrolidin-3-yl)phenyl)-1H-1,2,3-triazole-4-carboxamide] | 0.0189 | 0.0049
17 | CCOc1cccc(-n2ncc(C(=O)Nc3ccc([C@H]4CNCCO4)cc3)n2)c1 [Example 31, hydrochloride] | 0.107 | 0.013
18 | O=C(Nc1ccc([C@H]2CNCCO2)cc1)c1cn(-c2cccc(OC(F)F)c2)nn1 [Example 29, (S)-1-(3-(Difluoromethoxy)phenyl)-N-(4-(morpholin-2-yl)phenyl)-1H-1,2,3-triazole-4-carboxamide hydrochloride] | 0.0006 | 0.0009
19 | Cc1cccc(-n2cc(C(=O)Nc3ccc([C@H]4CNCCO4)cc3)nn2)c1 [Example 24, (S)—N-(4-(Morpholin-2-yl)phenyl)-1-m-tolyl-1H-1,2,3-triazole-4-carboxamide hydrochloride] | 0.0069 | 0.0013
20 | O=C(Nc1ccc([C@H]2CNCCO2)cc1)c1cnn(-c2cccc(OC(F)(F)F)c2)n1 [Example 28, (S)—N-(4-(Morpholin-2-yl)phenyl)-2-(3-(trifluoromethoxy)phenyl)-2H-1,2,3-triazole-4-carboxamide hydrochloride] | 0.0156 | 0.0034
21 | Cc1cccc(-n2ncc(C(=O)Nc3ccc([C@H]4CNCCO4)cc3)n2)c1 [Example 23, (S)—N-(4-(Morpholin-2-yl)phenyl)-2-m-tolyl-2H-1,2,3-triazole-4-carboxamide hydrochloride] | 0.0005 | 0.0011
22 | O=C(Nc1ccc([C@H]2CNCCO2)cc1)c1ncn(-c2ccc(OC(F)F)cc2)n1 [Example 32, (S)-1-(4-(Difluoromethoxy)phenyl)-N-(4-(morpholin-2-yl)phenyl)-1H-1,2,4-triazole-3-carboxamide hydrochloride] | 0.045 | 0.0018
